From patent US4335244A, “Monolactate salts of 4'-(9-acridinylamino)methanesulfon-m-anisidide” (Bristol-Myers Company, priority 1980, dated 1982)
In brackets after ≈: the same amount, converted by molar mass. Several values for one entry are separate records, joined by “and”; a condition that tells them apart may be missing. Equal values may be shown once. Read-outs that look alike come from different tables or passages of the source.

Assays:
[1] = Reconstitution with (sterile) water; format: physicochemical
Description: The crystalline m-AMSA monolactate hemiacetonate (10 mg) prepared according to Example 1 was dissolved in 0.5 ml sterile water in an 8.2 ml flint vial. The vial was lyophilized on a laboratory lyophilizer for 16 hours. Sterile water (0.5 ml) was added to the vial. A solution was obtained after two minutes of shaking.
2. For reconstitution, add a sufficient amount of sterile water for
injection to give a 5 mg/ml mAMSA activity solution. The reconstituted

physchem [2] = conditions: water
[3] = for Time for which dilute solution remains clear (in words): dilute solutions (e.g. 3-5 mg/ml) of m-AMSA, no precipitation of salt; for Stability (in words): solid form and/or upon reconstitution with water; for Time for which reconstituted solution remained clear: room temperature
Description: (§1) (f) Stability: 15 mg salt was reconstituted with 10 ml sterile water.

physchem [4] = conditions: sterile water
Description: as §1

[5] = cited from earlier work
animal tumor systems = conditions: Cain, et al., Europ. J. Cancer 10:539-549 (1974); cited from earlier work
[6] = pH of aqueous solution before lyophilization; format: physicochemical; conditions: 180 mg in 24 ml sterile water
Description: m-AMSA DL-lactate acetone solvate (180 mg; prepared in Example 6) was dissolved in 24 ml sterile water with stirring. The resulting clear (pH 4.2) solution was passed through a 1 inch 0.45 micron Millipore filter. Two ml of the filtrate was placed in an 8.2 cc flint vial and the solution was lyophilized for 24 hours.

For `COc1cc(NS(C)(=O)=O)ccc1Nc1c2ccccc2nc2ccccc12` [Example 11], the “Concentration of solution obtainable on reconstitution with water (m-AMSA activity)” value ([1]; lyophilized solid, at least 3-5 mg/ml m-AMSA activity, procedure of Example 7 'if repeated') was 3000 to 5000 µg/mL.

In the case of `COc1cc(NS(C)(=O)=O)ccc1Nc1c2ccccc2nc2ccccc12` [Example 1, L(+)-Monolactate Hemiacetonate of m-AMSA], the solubility (physchem [2]) is reported as 5 mg/mL (≈ 12.7 mM), the “Time for which reconstituted solution was stable” value ([3]; 15 mg salt reconstituted with 10 ml sterile water) is reported as “at least 24 hours” and the “Time for which dilute solution remains clear (in words)” value [3] is reported as “at least several hours”. The “Stability (in words)” value [3] was “excellent stability both in solid form and upon reconstitution with water” and the degraded at 336 h (physchem [4]) was less than 6%.

In the case of `COc1cc(NS(C)(=O)=O)ccc1Nc1c2ccccc2nc2ccccc12` [m-AMSA, 4'-(9-acridinylamino)methanesulfon-m-anisidide], the “Incompatibility of solutions with ions” value ([3]; chloride, sulfate and phosphate ions, insoluble salts form) is listed as “incompatible with chloride, sulfate and phosphate”, the Clinical evaluation result [5] is listed as “very promising initial results” and the “Antitumor activity in animal tumor systems” value (animal tumor systems) is listed as “significant antitumor activity in animal tumor systems”.

With `COc1cc(NS(C)(=O)=O)ccc1Nc1c2ccccc2nc2ccccc12` [Example 2, Lyophilized L(+)-Monolactate Hemiacetonate of m-AMSA] the “Shaking time to obtain a solution on reconstitution of lyophilized product” value ([1]; 10 mg salt lyophilized, 0.5 ml sterile water) was “two”.

With `COc1cc(NS(C)(=O)=O)ccc1Nc1c2ccccc2nc2ccccc12` [Example 7] the “Concentration of solution obtained on reconstitution with water” value (“Concentration of solution obtained” for short) [1] was 7500 µg/mL, the “Time for which aqueous solution remained clear” value ([3]; 7.5 mg/ml, 17° C.) was “at least 6 hours” and the “Time for which shaken solution was clear” value ([3]; 7.5 mg/ml, low speed horizontal shaker) was “up to 5 hours”.

With `COc1cc(NS(C)(=O)=O)ccc1Nc1c2ccccc2nc2ccccc12` [Example 10, m-AMSA D(-)-Monolactate Hemiacetonate] the “Time for which dilute solution remains clear (in words)” value [3] was “at least several hours” and the “Stability (in words)” value [3] was “excellent stability both in solid form and upon reconstitution with water”.

In the case of `COc1cc(NS(C)(=O)=O)ccc1Nc1c2ccccc2nc2ccccc12` [Example 4, m-AMSA Mono DL-Lactate Acetone Solvate], the “Concentration of solution obtained” value [1] is reported as 5000 to 7500 µg/mL, the “Concentration of reconstituted aqueous solution readily obtained” value ([1]; 3 minutes shaking at 75° F.) is reported as 5000 µg/mL and 7500 µg/mL and 10000 µg/mL and the “Concentration of solution obtained” value ([1]; listed as Example 5) is reported as 7500 µg/mL. The pH of solution [6] was 4.2, the solubility (physchem [2]; room temperature) was 25 mg/mL and the “Time for which aqueous solution remained clear” value ([3]; 5 mg/ml, room temperature (17° C.)) was “at least 16 hours”. For the same compound, the “Time for which aqueous solution remained clear” value ([3]; 7.5 mg/ml, 17° C., listed as Example 5) was “at least 16 hours”, the “Time for which reconstituted solution remained clear” value ([3]; 7.5 mg/ml) was 24 h and the “Time for which reconstituted solution remained clear” value ([3]; 10 mg/ml) was 24 h. For the same compound, the “Time for which reconstituted solution remained clear” value ([3]; 15 mg/ml) was 6 h, the “Time for which reconstituted solution remains clear” value ([3]; 5-7.5 mg/ml, 17° C.) was “at least 6 hours” and the “Time for which dilute solution remains clear (in words)” value [3] was “at least several hours”. For the same compound, the “Stability (in words)” value [3] was “excellent stability both in solid form and upon reconstitution with water”.
